Measured values published in patent publication US11505536B2, “Dihydroorotate dehydrogenase inhibitors” (Janssen Biotech, Inc., priority 2019, dated 2022).

Experiments:
human DHODH = human DHODH (Homo sapiens (Human), UniProt Q02127); test: DHODH Enzymatic Assay; assay type: biochemical; conditions: purified human DHODH, DCIP absorbance, end-point mode; read-out: hDHODH IC50
Method: The following assay is referred to herein as the “DHODH Enzymatic Assay.” To detect DHODH enzyme activities, dichloroindophenol (DCIP) is added as the final electron acceptor in the assay. DCIP can accept electrons from the reduced coenzyme Q generated in the assay, or from dihydroorotate (DHO) via FMN by binding presumably to the ubiquinone pocket. DCIP solutions are blue, with an intense absorbance around 600 nm, but becomes colorless upon reduction (J. Biol. Chem. (1986) 261, 11386). The assay buffer contained […], pH 7.5, 150 mM NaCl, 0.5 mM EDTA, and 0.1% Triton X-100 in MilliQ water. Substrate consisting of 20 mM DHO, 5 mM CoQ6, and 1 mM DCIP in assay buffer, initiates the reaction. The assay is run in end-point mode by quenching the reaction with the potent DHODH inhibitor brequinar. Absorbance measurements were obtained using the BMG Phera Star plate-reading spectrophotomer. Purified human DHODH was purchased from Proteros (cat. No. PR-0044). Chemicals were purchased from Sigma-Aldrich, Teknova, and Avanti Polar Lipids. Liquid handling was performed using Labcyte Echo and Formulatrix Tempest.

[1] = test system: MOLM-13 cells (human acute myeloid leukemia cells); test: MOLM-13 Cellular Assay; assay type: cell-based; conditions: 72 hours exposure, cell viability by CellTiter-Glo
Method: The following assay is referred to herein as the “MOLM-13 Cellular Assay.” MOLM-13 cells (human acute myeloid leukemia cells) were obtained from DSMZ and were maintained in RPMI 1640+Glutamax+25 mM HEPES (Invitrogen, catalog number 72400) supplemented with 10% heat inactivated fetal bovine serum (FBS; Invitrogen, catalog number 16140). The day prior to assay set-up, cells were pelleted, resuspended in fresh media, counted, and cells were plated at 0.4×10^6 cell/mL in a T150 flask. On the day of the assay, cells were pelleted, resuspend in fresh media, counted and seeded at 5,000 cells/well in white opaque 96-well tissue culture treated microplates (Perkin Elmer, catalog number 6005680). Cells were exposed to different concentrations of test compounds at 37° C., 5% CO2 for 72 hours immediately after seeding. Cell viability was acquired on a Perkin Elmer Envision 2104 multilabel reader using the CellTiter-Glo assay (Promega) according to the manufacturer's instructions.

Chain of human DHODH (Q02127 whole entry): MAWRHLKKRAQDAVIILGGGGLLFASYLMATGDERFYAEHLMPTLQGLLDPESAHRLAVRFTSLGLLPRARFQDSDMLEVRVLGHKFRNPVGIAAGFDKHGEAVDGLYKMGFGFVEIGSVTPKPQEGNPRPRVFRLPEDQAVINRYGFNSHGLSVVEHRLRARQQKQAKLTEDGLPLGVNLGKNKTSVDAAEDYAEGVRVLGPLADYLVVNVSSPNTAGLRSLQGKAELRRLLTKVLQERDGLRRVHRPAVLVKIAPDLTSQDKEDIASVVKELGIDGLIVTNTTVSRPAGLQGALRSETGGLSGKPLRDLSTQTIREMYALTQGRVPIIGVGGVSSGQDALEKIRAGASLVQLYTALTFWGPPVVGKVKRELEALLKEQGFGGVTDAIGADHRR

| SMILES | IC50 (human DHODH) [nM] | IC50 ([1]; Homo sapiens, MOLM-13, 72 h) [nM] | IC50 [1] [nM] |
| --- | --- | --- | --- |
| CCn1c(CO)nn(-c2ccc3c(=O)n(-c4c(Cl)cccc4Cl)cc(C4(C)CC4)c3c2)c1=O [Example 7, 2-(2,6-Dichlorophenyl)-6-(4-ethyl-3-(hydroxymethyl)-5-oxo-4,5-dihydro-1H-1,2,4-triazol-1-yl)-4-(1-methylcyclopropyl)isoquinolin-1(2H)-one] | 0.965 | 2 | – |
| C=C(C)c1cn(-c2c(Cl)cccc2Cl)c(=O)c2ccc(-n3nc(CO)n(CC)c3=O)cc12 [Example 8, 2-(2,6-Dichlorophenyl)-6-(4-ethyl-3-(hydroxymethyl)-5-oxo-4,5-dihydro-1H-1,2,4-triazol-1-yl)-4-(prop-1-en-2-yl)isoquinolin-1(2H)-one] | 0.839 | 0.7 | – |
| CCn1c(CO)nn(-c2ccc3c(=O)n(-c4c(F)cccc4Cl)cc(C4CC4)c3c2)c1=O [Example 9, 2-(2-Chloro-6-fluorophenyl)-4-cyclopropyl-6-(4-ethyl-3-(hydroxymethyl)-5-oxo-4,5-dihydro-1H-1,2,4-triazol-1-yl)isoquinolin-1(2H)-one] | 11.5 | 5 | – |
| CCn1c(CO)nn(-c2ccc3c(=O)n(-c4c(F)cccc4Cl)ccc3c2)c1=O [Example 10, 2-(2-Chloro-6-fluorophenyl)-6-(4-ethyl-3-(hydroxymethyl)-5-oxo-4,5-dihydro-1H-1,2,4-triazol-1-yl)isoquinolin-1(2H)-one] | 344 | 100 | – |
| CCn1c(CO)nn(-c2cc3c(C(C)C)cn(-c4c(F)cccc4Cl)c(=O)c3cc2F)c1=O [Example 11, 2-(2-Chloro-6-fluorophenyl)-6-(4-ethyl-3-(hydroxymethyl)-5-oxo-4,5-dihydro-1H-1,2,4-triazol-1-yl)-7-fluoro-4-isopropylisoquinolin-1(2H)-one] | 0.222 | ≤ 0.2 | 0.2 |
| C=C(C)c1cn(-c2ccccc2C(F)(F)F)c(=O)c2ccc(-n3nc(CO)n(CC)c3=O)cc12 [Example 12, 6-(4-Ethyl-3-(hydroxymethyl)-5-oxo-4,5-dihydro-1H-1,2,4-triazol-1-yl)-4-(prop-1-en-2-yl)-2-(2-(trifluoromethyl)phenyl)isoquinolin-1(2H)-one] | 2.29 | 2 | – |
| C=C(C)c1cn(-c2ccccc2C#N)c(=O)c2ccc(-n3nc(CO)n(CC)c3=O)cc12 [Example 13, 2-(6-(4-Ethyl-3-(hydroxymethyl)-5-oxo-4,5-dihydro-1H-1,2,4-triazol-1-yl)-1-oxo-4-(prop-1-en-2-yl)isoquinolin-2(1H)-yl)benzonitrile] | 5.49 | 6 | – |
| C=C(C)c1cn(-c2ccccc2Cl)c(=O)c2ccc(-n3nc(CO)n(CC)c3=O)cc12 [Example 14, 2-(2-Chlorophenyl)-6-(4-ethyl-3-(hydroxymethyl)-5-oxo-4,5-dihydro-1H-1,2,4-triazol-1-yl)-4-(prop-1-en-2-yl)isoquinolin-1(2H)-one] | 0.724 | 0.4 | – |
| C=C(C)c1cn(-c2ccccc2C)c(=O)c2ccc(-n3nc(CO)n(CC)c3=O)cc12 [Example 15, 6-(4-Ethyl-3-(hydroxymethyl)-5-oxo-4,5-dihydro-1H-1,2,4-triazol-1-yl)-4-(prop-1-en-2-yl)-2-(o-tolyl)isoquinolin-1(2H)-one] | 0.634 | 0.4 | – |
| CCn1c(CO)nn(-c2ccc3c(=O)n(-c4ccc([N+](=O)[O-])cc4F)cc(I)c3c2)c1=O [Example 16, 6-(4-Ethyl-3-(hydroxymethyl)-5-oxo-4,5-dihydro-1H-1,2,4-triazol-1-yl)-2-(2-fluoro-4-nitrophenyl)-4-iodoisoquinolin-1(2H)-one] | 1180 | 300 | – |
| CCn1c(CO)nn(-c2ccc3c(=O)n(-c4ccccc4Cl)nc(C(C)C)c3c2)c1=O [Example 17, 2-(2-Chlorophenyl)-6-(4-ethyl-3-(hydroxymethyl)-5-oxo-4,5-dihydro-1H-1,2,4-triazol-1-yl)-4-isopropylphthalazin-1(2H)-one] | 3.21 | 3 | – |
| CCn1c(CO)nn(-c2ccc3c(=O)n(-c4cccc(F)c4)nc(C(C)C)c3c2)c1=O [Example 18, 6-(4-Ethyl-3-(hydroxymethyl)-5-oxo-4,5-dihydro-1H-1,2,4-triazol-1-yl)-2-(3-fluorophenyl)-4-isopropylphthalazin-1(2H)-one] | 80.7 | 30 | – |
| CCn1c(CO)nn(-c2ccc3c(=O)n(-c4c(F)cccc4Cl)nc(C(C)C)c3c2)c1=O [Example 19, 2-(2-Chloro-6-fluorophenyl)-6-(4-ethyl-3-(hydroxymethyl)-5-oxo-4,5-dihydro-1H-1,2,4-triazol-1-yl)-4-isopropylphthalazin-1(2H)-one] | 4.96 | 4 | – |
| CCc1nn(-c2cccc(F)c2)c(=O)c2ccc(-n3nc(CO)n(CC)c3=O)cc12 [Example 20, 4-Ethyl-6-(4-ethyl-3-(hydroxymethyl)-5-oxo-4,5-dihydro-1H-1,2,4-triazol-1-yl)-2-(3-fluorophenyl)phthalazin-1(2H)-one] | 83.5 | 100 | – |
| CCc1nn(-c2ccccc2C)c(=O)c2ccc(-n3nc(CO)n(CC)c3=O)cc12 [Example 21, 4-Ethyl-6-(4-ethyl-3-(hydroxymethyl)-5-oxo-4,5-dihydro-1H-1,2,4-triazol-1-yl)-2-(o-tolyl)phthalazin-1(2H)-one] | 31.2 | 10 | – |
| CCn1c(CO)nn(-c2cc3c(C(C)C)cn(-c4ccccc4C)c(=O)c3cc2F)c1=O [Example 22, 6-(4-Ethyl-3-(hydroxymethyl)-5-oxo-4,5-dihydro-1H-1,2,4-triazol-1-yl)-7-fluoro-4-isopropyl-2-(o-tolyl)isoquinolin-1(2H)-one] | 0.396 | ≤ 0.2 | 0.2 |
| CCn1c(CO)nn(-c2cc3c(C(C)C)cn(-c4c(C)ccnc4Cl)c(=O)c3cc2F)c1=O [Example 23, 2-(2-Chloro-4-methylpyridin-3-yl)-6-(4-ethyl-3-(hydroxymethyl)-5-oxo-4,5-dihydro-1H-1,2,4-triazol-1-yl)-7-fluoro-4-isopropylisoquinolin-1(2H)-one] | 3.57 | 3 | – |
| CCn1c(CO)nn(-c2ccc3c(=O)n(-c4c(F)cccc4Cl)cc(C4(C)CC4)c3c2)c1=O [Example 24, 2-(2-Chloro-6-fluorophenyl)-6-(4-ethyl-3-(hydroxymethyl)-5-oxo-4,5-dihydro-1H-1,2,4-triazol-1-yl)-4-(1-methylcyclopropyl)isoquinolin-1(2H)-one] | 1.65 | 1 | – |
| CCn1c(CO)nn(-c2ccc3c(=O)n(-c4ccccc4C)cc(N(C)C)c3c2)c1=O [Example 26, 4-(Dimethylamino)-6-(4-ethyl-3-(hydroxymethyl)-5-oxo-4,5-dihydro-1H-1,2,4-triazol-1-yl)-2-(o-tolyl)isoquinolin-1(2H)-one] | 46.5 | 20 | – |
| CCn1c(CO)nn(-c2cc3c(C(C)C)cn(-c4c(C)n[nH]c4Cl)c(=O)c3cc2F)c1=O [Example 31, 2-(5-Chloro-3-methyl-1H-pyrazol-4-yl)-6-(4-ethyl-3-(hydroxymethyl)-5-oxo-4,5-dihydro-1H-1,2,4-triazol-1-yl)-7-fluoro-4-isopropylisoquinolin-1(2H)-one] | 0.764 | 6 | – |
| C=C(C)c1cn(-c2ccccc2C)c(=O)c2cc(F)c(-n3nc(CO)n(CC)c3=O)nc12 [Example 32, 2-(4-Ethyl-3-(hydroxymethyl)-5-oxo-4,5-dihydro-1H-1,2,4-triazol-1-yl)-3-fluoro-8-(prop-1-en-2-yl)-6-(o-tolyl)-1,6-naphthyridin-5(6H)-one] | 1.01 | 2 | – |
| CCn1c(CO)nn(-c2nc3c(C)nn(-c4ccccc4C)c(=O)c3cc2F)c1=O [Example 33, 2-(4-Ethyl-3-(hydroxymethyl)-5-oxo-4,5-dihydro-1H-1,2,4-triazol-1-yl)-3-fluoro-8-methyl-6-(o-tolyl)pyrido[2,3-d]pyridazin-5(6H)-one] | 240 | > 100 | – |
| CCn1c(CO)nn(-c2nc3c(C(C)C)nn(-c4ccccc4C)c(=O)c3cc2F)c1=O [Example 34, 2-(4-Ethyl-3-(hydroxymethyl)-5-oxo-4,5-dihydro-1H-1,2,4-triazol-1-yl)-3-fluoro-8-isopropyl-6-(o-tolyl)pyrido[2,3-d]pyridazin-5(6H)-one] | 1.97 | 4 | – |
| C=C(C)c1cn(-c2c(F)cccc2Cl)c(=O)c2cc(F)c(-n3nc(CO)n(CC)c3=O)nc12 [Example 35, 6-(2-Chloro-6-fluorophenyl)-2-(4-ethyl-3-(hydroxymethyl)-5-oxo-4,5-dihydro-1H-1,2,4-triazol-1-yl)-3-fluoro-8-(prop-1-en-2-yl)-1,6-naphthyridin-5(6H)-one] | 1.15 | 1 | – |
